Experimental data as given in article PMC6208443 (Nature Communications, 2018).

What was measured:
Type in all cases: binding, Arabidopsis thaliana
Details in all cases: result in words
AGDP1 = assay: Peptide affinity purification and mass spectrometry, AGDP1
Method: (§1) To extract the nuclear proteins for peptide affinity purification, 1 g of wild-type Arabidopsis flowers was harvested and ground in liquid nitrogen. […] The filtrates were centrifuged at 2000 g for 15 min at 4 °C to precipitate the nuclei. Nuclear pellets were washed two times with 1 ml of Honda buffer and then were resuspended in 600 μl of Nuclei Lysis Buffer (50 mM Tris-HCl pH 8.0, 150 mM NaCl, 1% NP40, 0.5 mM DTT, 1 mM PMSF, Roche protease inhibitor cocktail). After sonication, nuclei extracts were centrifuged at 20,000 g for 10 min at 4 °C. The supernatant was incubated with 2 μg of biotinylated histone peptides and Streptavidin Magnetic Beads (Thermo Scientific, 88816) for 3 h with rotation at 4 °C. […] After incubation, beads were washed three times with wash buffer 1 (320 mM NaCl, 50 mM Tris-HCl pH 8.0, 0.5% NP40), and three times with wash buffer 2 (150 mM NaCl, 50 mM Tris-HCl pH 8.0).
(§2) For LC-MS/MS analysis, IP beads with captured proteins were lysed in 12 mM sodium deoxycholate (SDC)-sodium lauroyl sarcosinate (SLS): 100 mM Tris-HCl (pH 8.5), 12 mM SDC, and 12 mM SLS. Proteins were reduced and alkylated with 10 mM tris-(2-carboxyethyl) phosphine and 40 mM chloroacetamide at 95 °C for 5 min. The supernatant containing reduced and alkylated proteins was transferred into a new Eppendorf tube and diluted fivefold with 50 mM triethylammonium hydrogen carbonate buffer and digested with 500 ng trypsin (Sigma) overnight. The SDC and SLS were removed by adding 100% acetyl acetate in a ratio 1:1 (vol/vol) sample to acetyl acetate volume ratio. Samples were acidified with 10% trifluoroacetic acid to pH ~3, and desalted by a custom-made stage tip with a styrene divinyl benzene (SDB-XC) membrane (3 M). The dried peptides were resuspended in 30 μL of 0.3% formic acid (FA) with 3% acetonitrile (ACN), quantified by BCA assay (Thermo Fisher Scientific), and injected into an Easy-nLC 1000 (Thermo Fisher Scientific). Peptides were separated on a 45 cm in-house packed column (360 μm OD × 75 μm ID) containing C18 resin (2.2 μm, 100 Å, Michrom Bioresources) with a 30 cm column heater (Analytical Sales and Services) set at 60 °C. The mobile phase buffer consisted of 0.1% FA in ultra-pure water (buffer A) with an eluting buffer of 0.1% FA in 80% ACN (buffer B) run over a linear 65 min gradient of 5%-30% buffer B at a flow rate of 250 nL/min. The Easy-nLC 1000 was coupled online with a Velos Pro LTQ-Orbitrap mass spectrometer (Thermo Fisher Scientific). The mass spectrometer was operated in the data-dependent mode in which a full MS scan (from m/z 350–1500 with the resolution of 30,000 at 400 m/z) was followed by the 10 most intense ions being subjected to collision-induced dissociation (CID) fragmentation. […]

CMT2 = assay: Peptide affinity purification and mass spectrometry, CMT2
Method: as §1
as §2, with “[…] Search” for “The mass spectrometer”, “performed with full tryptic digestion and allowed a maximum of two missed cleavages on” for “operated in”, “peptides analyzed from” for “data-dependent mode in which a full MS scan (from m/z 350–1500 with”, “sequence database.” for “resolution of 30,000 at 400 m/z) was followed by the 10 most intense ions being subjected to collision-induced dissociation (CID) fragmentation.”

EDM2 = assay: Peptide affinity purification and mass spectrometry, EDM2
Method: as §1, §2

CMT3 = assay: Peptide affinity purification and mass spectrometry, CMT3
Method: as §1
as §2, with “[…] Search” for “The mass spectrometer”, “performed with full tryptic digestion and allowed a maximum of two missed cleavages on” for “operated in”, “peptides analyzed from” for “data-dependent mode in which a full MS scan (from m/z 350–1500 with”, “sequence database.” for “resolution of 30,000 at 400 m/z) was followed by the 10 most intense ions being subjected to collision-induced dissociation (CID) fragmentation.”

Substance	identification from pull-down samples (AGDP1)	presence in pull-down products (CMT2)	presence in pull-down products (EDM2)	presence in pull-down products (CMT3)
H3(1-21): synthesized biotinylated H3(1-21) peptide, EMD Millipore	not from the H3 pull-down samples	not in H3 pull-down products	not in H3 pull-down products	not in H3 pull-down products
H3(1-21)K9me1: synthesized biotinylated H3(1-21)K9me1 peptide, EMD Millipore	identified	present	present	present
H3(1-21)K9me2: synthesized biotinylated H3(1-21)K9me2 peptide, EMD Millipore	identified	present	present	present
H3(1-21)K9me3: synthesized biotinylated H3(1-21)K9me3 peptide, EMD Millipore	identified	present	present	present
